# Measurements taken from patent publication US7932382B2, “Conformationally constrained Smac mimetics and the uses thereof” (The Regents of the University of Michigan, priority 2005, dated 2011).
# Where a SMILES comes first, the peptide text is derived from it. [ ]: non-standard residue; d: D form. The star is where a group is joined. 6FAM = O=C1OC2(c3ccc(O)cc3Oc3cc(O)ccc32)c2cc(C(=O)*)ccc21; Abu = CC[C@H](N)C(=O)O
# B1: mature Smac protein: mature Smac/DIABLO protein, endogenous inhibitor of XIAP (protein, UniProt Q9NR28 22-239, looked up)
# Diablo IAP-binding …: LCVPVVANFKKRCFSELIRPWHKTVTIGFGVTLCAVPIAQKSEPHSLSSEALMRRAVSLVTDSTSTFLSQTTYALIEAITEYTKAVYTLTSLYRQYTSLLGKMNSEEEDEVWQVIIGARAEMTSKHQEYLKLETTWMTAVGLSEMAAEAAYQTGADQASITARNHIQLVKLQVEEVHQLSRKAETKLAEAQIEELRQKTQEEGEERAESEQEAYLRED
# What was measured:
# [1] = tested on: PC-3 cells; test: Apoptosis by Annexin V-FITC staining in PC-3 cells; assay type: cell-based, human; details: for potentiation of the activity of CDDP in inducing apoptosis: PC-3 cells
# Method: PC-3 cells were treated with CDDP, Smac peptides and mimetics alone or in combination for 42 hours and apoptosis was analyzed by Annexin V-FITC staining. […] Combination of 25 μM CDDP and 10 μM or 25 μM SH-97 induced 29.3%±1.9% and 35.8%±0.4% apoptosis over control cells, respectively (FIG. 10A).
# Similar experiments were performed with SH-102 (Table 5). PC-3 cells in 6-well plates were treated with SH-102 and CDDP, alone or on combination, for 42 hours. Cells were collected and stained with Annexin V-FITC and propidium iodide. The fluorescence of Annexin V-FITC and propidium iodide of individual cells was analyzed by flow cytometry. […] Combination of 25 μM CDDP and 10 μM SH-102 induced 32% apoptosis over control cells (FIG. 11).
# The same experiment was performed using TAXOTERE (docetaxel), another cancer chemotherapeutic drug. PC-3 cells in 6-well plates were treated with SH-102 and TAXOTERE, alone or in combination, for 42 hours. Cells were collected and stained with Annexin V-FITC and propidium iodide. The fluorescence of Annexin V-FITC and propidium iodide of individual cells was analyzed by flow cytometry. […] Combination of 10 μM taxotere and 10 μM SH-102 induced about 18% apoptosis over control cells (FIG. 13).
# [2] = tested on: MDA-231 cells; test: Apoptosis by Annexin V-FITC/propidium iodide flow cytometry in MDA-231 cells; assay type: cell-based, human; details: for cells undergoing apoptosis as compared to control cells: 42 hours; for potentiation of the activity of CDDP in inducing apoptosis: MDA-231 cells
# Method: Similar experiments were performed using the breast cancer cell line MDA-231. MDA-231 cells in 6-well plates were treated with SH-102 and CDDP, alone or on combination, for 42 hours. Cells were collected and stained with Annexin V-FITC and propidium iodide. The fluorescence of Annexin V-FITC and propidium iodide of individual cells was analyzed by flow cytometry. 25 μM and 50 μM CDDP induced about 25% and 42% of MDA-231 cells to undergo apoptosis as compared to control cells, respectively (FIG. 14). […] Combination of 25 and 50 μM CDDP and 10 μM SH-102 induced about 35% and 75% apoptosis over control cells, respectively (FIG. 14).
# [3] = tested on: MDA-435, MDA468, and T47D cells; test: Cell growth inhibition (WST-8) in breast cancer cell lines; assay type: cell-based, human; details: all three cell lines, 5 days
# Method: To test the effect of Smac mimetics by themselves in inhibition of cell growth in human cancer cells, SH-102 was administered to three different breast cancer cell lines. MDA-435, MDA468, and T47D cells were seeded in 96-well plates with increasing concentrations of SH-102, Smac8, or Smac8-C. The cells were then incubated at 37° C. with 5% CO2 for 5 days, followed by detection of cell viability with WST-8. Untreated cells were used as 100% growth. […]. […] (FIGS. 18A-18C).
# [4] = target: T1, human XIAP-BIR3 protein (residues 241-356) (Homo sapiens, UniProt P98170); test: Fluorescence polarization saturation (direct) binding of labeled Smac peptides; design: The human XIAP-BIR3 protein (residues 241-356) with a His tag; details: 5 nM labeled peptide titrated with 0 to 40 μM protein; read-out: Kd value (dissociation constant to XIAP-BIR3)
# [5] = target: T1, human XIAP-BIR3 protein (residues 241-356); test: biochemical
# [6] = target: XIAP (Homo sapiens, UniProt P98170); details: cited from earlier work
# XIAP, sequence (P98170 whole entry): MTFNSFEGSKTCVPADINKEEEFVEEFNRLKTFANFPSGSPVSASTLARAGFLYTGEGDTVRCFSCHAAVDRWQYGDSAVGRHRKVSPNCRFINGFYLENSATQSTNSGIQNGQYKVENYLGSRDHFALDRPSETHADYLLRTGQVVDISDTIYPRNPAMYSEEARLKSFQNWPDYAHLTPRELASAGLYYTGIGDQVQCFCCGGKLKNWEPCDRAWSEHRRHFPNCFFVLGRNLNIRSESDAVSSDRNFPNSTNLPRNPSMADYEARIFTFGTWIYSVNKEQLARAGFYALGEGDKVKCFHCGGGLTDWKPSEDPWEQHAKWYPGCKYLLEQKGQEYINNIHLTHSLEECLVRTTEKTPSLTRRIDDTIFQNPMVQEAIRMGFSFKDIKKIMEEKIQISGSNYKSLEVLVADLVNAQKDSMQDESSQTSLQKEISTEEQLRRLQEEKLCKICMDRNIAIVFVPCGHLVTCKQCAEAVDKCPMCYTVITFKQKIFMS
# T1 sequence (P98170 241-356): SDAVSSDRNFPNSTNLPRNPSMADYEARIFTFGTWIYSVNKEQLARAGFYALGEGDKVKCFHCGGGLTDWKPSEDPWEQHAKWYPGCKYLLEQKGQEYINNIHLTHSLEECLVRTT
molecule,measurement,setting,value
CC[C@H](N)C(=O)N[C@H]1CCC[C@H]2CC[C@@H](C(=O)NC(c3ccccc3)c3ccccc3)N2C1=O [Compound 34],apoptosis compared to untreated cancer cells,"[1]; SH-102 alone up to 100 μM, 42 hours",did not induce significantly more apoptosis
"[NH2][Pt]([NH2])([Cl])[Cl] [CDDP, cisplatin]",cancer cells undergoing apoptosis as compared to control cells,"[1]; 50 μM CDDP alone, 42 hours",~25%
same,cells undergoing apoptosis as compared to control cells,[2]; 25 μM CDDP alone,about 25%
same,cells undergoing apoptosis as compared to control cells,[2]; 50 μM CDDP alone,~42%
"AVPIAQKS [Smac8, Smac peptide without a carrier peptide, negative control]",potentiation of the activity of CDDP in inducing apoptosis,[1],unable to potentiate
same,potentiation of the activity of CDDP in inducing apoptosis,[2],unable to potentiate
same,inhibition of cell growth (in words),[3],essentially ineffective
"CC[C@H](N)C(=O)N[C@@H](CCCNC(=N)N)C(=O)N1CCC[C@H]1C(=O)N[C@@H](Cc1ccccc1)C(=O)N[C@@H](CCCCNC(=O)c1ccc2c(c1)C1(OC2=O)c2ccc(O)cc2Oc2cc(O)ccc21)C(N)=O [SM5F, AbuRPFK-FAM] (H-[Abu]RPFK(6FAM)-NH2; N-terminus and C-terminus assumed)",Kd,[4],17.9 nM
CCC[C@H](N)C(=O)N[C@H]1CC[C@H]2CC[C@@H](C(=O)NCc3ccccc3)N2C1=O [SH-93],potentiation of the activity of CDDP in inducing apoptosis,[1],unable to potentiate
same,potentiation of the activity of CDDP in inducing apoptosis,[2],unable to potentiate
CCC(CC)CNC(=O)[C@@H]1CC[C@@H]2CC[C@H](NC(=O)[C@H](C)N)C(=O)N21 [SH-76],Ki,[5],> 200000 nM
B1,Kd,[6],420 nM
